Source: ChEMBL document CHEMBL4354794, “Potential Anticancer Agents Characterized from Selected Tropical Plants” (J Nat Prod, 2019)
pEC50, pIC50: −log10 of the molar value.

How the values were obtained:
P388 = experiment: Antiproliferative activity against mouse P388 cells assessed as reduction in cell viability; assay type: functional, cell-based; settings: read-out: ED50 (the source's name)
A-431 = experiment: Antiproliferative activity against human A431 cells assessed as reduction in cell viability; assay type: functional; settings: read-out: ED50 (the source's name)
[1] = Antiproliferative activity against human BC1 cells assessed as reduction in cell viability; assay type: functional; settings: read-out: ED50 (the source's name)
HT-29 [2] = experiment: Antiproliferative activity against human HT-29 cells assessed as reduction in cell viability; assay type: functional, cell-based
HT = experiment: Antiproliferative activity against human HT cells assessed as reduction in cell viability; assay type: functional; settings: read-out: ED50 (the source's name)
KB [3] = experiment: Antiproliferative activity against human KB/HeLa cells assessed as reduction in cell viability; assay type: functional, cell-based
Col2 = experiment: Antiproliferative activity against human Col2 cells assessed as reduction in cell viability; assay type: functional, cell-based
[4] = Antiproliferative activity against human U373 cells assessed as reduction in cell viability; assay type: functional, U-373MG ATCC; settings: U373 MG, read-out: ED50 (the source's name)
KB-V1 = experiment: Antiproliferative activity against human KBV1 cells assessed as reduction in cell viability; assay type: functional; settings: read-out: ED50 (the source's name)
HeLa = experiment: Antiproliferative activity against human HeLa cells assessed as reduction in cell viability; assay type: functional, cell-based
OVCAR-3 [5] = experiment: Antiproliferative activity against human OVCAR3 cells assessed as reduction in cell viability; assay type: functional, cell-based
OVCAR-8 = experiment: Antiproliferative activity against human OVCAR8 cells assessed as reduction in cell viability; assay type: functional, cell-based
OVCAR-3 [6] = experiment: Antiproliferative activity against human OVCAR3 cells assessed as reduction in cell viability after 48 hrs by CCK8 assay; assay type: functional, cell-based; settings: OVCAR-3, 48 h
SK-OV-3 = experiment: Antiproliferative activity against human SKOV3 cells assessed as reduction in cell viability after 48 hrs by CCK8 assay; assay type: functional, cell-based; settings: SK-OV-3, 48 h
[7] = biological target: Tyrosine-protein phosphatase non-receptor type 1 (Homo sapiens, UniProt P18031); experiment: Inhibition of recombinant human PTP1B (1 to 322 residues) expressed in Escherichia coli assessed as reduction in p-nitrophenol formation using p-nitrophenyl phosphate as substrate incubated for 30 mins by spectrophotometric method
[8] = Toxicity in po dosed mouse; assay type: organism-based; settings: in vivo
[9] = Antiproliferative activity against human Ben-Men-1 cells incubated for 72 hrs by resazurin dye based fluorescence assay; assay type: functional, cell-based
[10] = Antiproliferative activity against mouse Sch10545 cells incubated for 72 hrs by resazurin dye based fluorescence assay; assay type: functional, cell-based
DU-145 = experiment: Antiproliferative activity against human DU145 cells assessed as reduction in viability after 48 hrs by MTTS assay; assay type: functional, cell-based; settings: DU-145, 48 h
HT-29 [11] = experiment: Antiproliferative activity against human HT-29 cells assessed as reduction in cell viability after 3 days by SRB assay; assay type: functional, cell-based; settings: HT-29, 72 h
[12] = Inhibition of chymotrypsin-like proteasome (unknown origin) using Suc-LLVY-AMC as substrate by fluorescence based assay; set-up: species or system Homo sapiens
WRL68 = experiment: Cytotoxicity against human WRL68 cells assessed as reduction in viability; assay type: cell-based
SK-HEP1 = experiment: Cytotoxicity against human SKHEP1 cells assessed as reduction in viability; assay type: functional, cell-based
KB [13] = experiment: Antiproliferative activity against human KB cells assessed as reduction in cell viability; assay type: functional, cell-based
HEp-2 = experiment: Antiproliferative activity against human Hep2 cells by MTT assay; assay type: functional, cell-based
MDA-MB-231 = experiment: Antitumour activity against human MDA-MB-231 cells xenografted in Nu/Nu mouse at 10 mg/kg, iv for 6 times at 2 days interval; assay type: functional
HL-60 = experiment: Antiproliferative activity against human HL60 cells assessed as reduction in cell viability after 3 days by trypan blue dye based hemocytometer counting method; assay type: functional; settings: HL-60, 72 h

Chain of Tyrosine-protein phosphatase non-receptor type 1 (P18031 whole entry, the tested form may be a part): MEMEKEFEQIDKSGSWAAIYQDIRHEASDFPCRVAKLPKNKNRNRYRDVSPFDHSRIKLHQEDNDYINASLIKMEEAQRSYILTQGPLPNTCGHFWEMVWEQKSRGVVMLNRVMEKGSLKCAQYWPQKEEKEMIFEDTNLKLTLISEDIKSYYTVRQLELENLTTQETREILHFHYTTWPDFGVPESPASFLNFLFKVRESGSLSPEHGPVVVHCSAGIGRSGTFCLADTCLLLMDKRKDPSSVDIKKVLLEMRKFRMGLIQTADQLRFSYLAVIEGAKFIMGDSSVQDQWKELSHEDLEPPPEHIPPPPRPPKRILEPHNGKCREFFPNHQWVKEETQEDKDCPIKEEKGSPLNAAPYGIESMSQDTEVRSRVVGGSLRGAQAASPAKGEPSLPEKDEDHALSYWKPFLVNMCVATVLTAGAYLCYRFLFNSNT

Molecule `COc1cc(-c2oc3cc(OC)c(OC)c(O)c3c(=O)c2OC)ccc1O` [CHRYSOSPLENOL B] has a pEC50 (P388) of 5.81 to 6.48, a pEC50 (A-431) of 5.81 to 6.48 and a pEC50 [1] of 5.81 to 6.48. The pIC50 (HT-29 [2]) was less than 5.00, the pEC50 (HT) was 5.81 to 6.48 and the pEC50 (KB [3]; read-out: ED50 (the source's name)) was 5.81 to 6.48. For the same molecule, the IC50 (Col2) was greater than 10 µg/mL, the pEC50 [4] was 5.81 to 6.48 and the pEC50 (KB-V1) was 5.67.

Molecule `O=c1cc(-c2ccc(O)c(-c3c(O)cc(O)c4c(=O)cc(-c5ccc(O)cc5)oc34)c2)oc2cc(O)cc(O)c12` [AMENTOFLAVONE] has a pIC50 (HeLa) of less than 5.00.

`COc1cc2c(O[C@@H]3O[C@H](CO)[C@@H]4OC(C)(C)O[C@@H]4[C@H]3O)c3c(c(-c4ccc5c(c4)OCO5)c2cc1OC)C(=O)OC3` showed a pIC50 (HT-29 [2]) of 7.37, a pIC50 (OVCAR-3 [5]) of 8.38 and a pIC50 (OVCAR-8) of 8.40.

`O=c1c2cc(O)ccc2oc2cccc(O)c12` gave a pIC50 (OVCAR-3 [6]) of less than 5.00 and a pIC50 (SK-OV-3) of less than 5.00.

With `CC(C)=CC[C@]12OC(C)(C)[C@H]3C[C@H](C=C4C(=O)c5c(O)cc(O)cc5O[C@@]431)C2=O` [COCHINCHINOXANTHONE] the pIC50 [7] was 5.18.

`C[C@H]1O[C@@H](O[C@H]2[C@@H](O)C[C@H](O[C@H]3[C@@H](O)C[C@H](O[C@H]4CC[C@@]5(C)[C@H](CC[C@@H]6[C@@H]5CC[C@]5(C)[C@@H](C7=CC(=O)OC7)CC[C@]65O)C4)O[C@@H]3C)O[C@@H]2C)C[C@H](O)[C@@H]1O` [DIGITOXIN] gave an LD50 [8] of 10 to 80 mg/kg.

Work on `C=C(C)C(=O)O[C@H]1C[C@@]2(C)OC(=CC2=O)/C(CO)=C\[C@H]2OC(=O)C(=C)[C@H]12` [GOIAZENSOLIDE] yielded a pIC50 [9] of 6.00 and a pIC50 [10] of 6.00.

With `C[C@@H]1C[C@H](O)[C@]2(O)O[C@@H]3C[C@@]4(C=O)[C@@H](CC[C@@H]5[C@@H]4CC[C@]4(C)[C@@H](C6=CC(=O)OC6)CC[C@]54O)C[C@H]3O[C@@H]2O1` [CALOTROPIN] the pIC50 (DU-145) was 7.52.

Work on `O=C1c2c(O)cc(O)cc2O[C@@H](c2ccc(O)cc2)[C@@H]1c1c(O)cc(O)c2c(=O)cc(-c3ccc(O)c(O)c3)oc12` yielded a pIC50 (HT-29 [11]) of less than 5.00 and a pIC50 [12] of 5.89.

For `COc1c(O)cc2oc3cc(O)c(CC=C(C)C)c(O)c3c(=O)c2c1CC=C(C)C` [MANGOSTIN], the pIC50 (WRL68) was 3.80 and the pIC50 (SK-HEP1) was 4.71.

`C[C@]12CC[C@H]3[C@@H](CC[C@H]4C[C@@H](O)[C@H](O)C[C@@]43C=O)[C@@]1(O)CC[C@@H]2C1=CC(=O)OC1` [CALOTROPAGENIN] showed a pIC50 (DU-145) of 6.32.

`CC[C@H](CC[C@@H](C)[C@H]1CC[C@H]2[C@@H]3CC=C4C[C@@H](O)CC[C@]4(C)[C@H]3CC[C@]12C)C(C)C` [BETA-SITOSTEROL] showed an IC50 (KB [13]) greater than 10 µg/mL, a pIC50 (KB [3]) of less than 3.62 and a pIC50 (HEp-2) of 4.94.

With `CC(C)=CCC[C@]1(C)C=Cc2c(O)c3c(c(CC=C(C)C)c2O1)O[C@]12C(=C[C@@H]4C[C@H]1C(C)(C)O[C@@]2(C/C=C(/C)C(=O)O)C4=O)C3=O` [GAMBOGIC ACID] the “fold change (FC)” value (MDA-MB-231) was 1.31 and the pIC50 (HL-60) was 6.77.
